From patent US6380235B1, “Benzimidazolones and analogues” (American Home Products Corporation, priority 1999, dated 2002)
“And” between values parts separate entries of the source, which are not always exact repeats. Identical values can stand only once.

Key:
human PR = target: T1, human PR (Homo sapiens, UniProt P06401); experiment: PRE-luciferase assay in CV-1 cells (hPR CV-1); type: cell-based
T1 construct: expressed in transfected cells; host or cells: CV-1 cells, electroporated with pLEM-hPR-B and pGL3-2xPRE-luciferase
T1 sequence (P06401 1-933): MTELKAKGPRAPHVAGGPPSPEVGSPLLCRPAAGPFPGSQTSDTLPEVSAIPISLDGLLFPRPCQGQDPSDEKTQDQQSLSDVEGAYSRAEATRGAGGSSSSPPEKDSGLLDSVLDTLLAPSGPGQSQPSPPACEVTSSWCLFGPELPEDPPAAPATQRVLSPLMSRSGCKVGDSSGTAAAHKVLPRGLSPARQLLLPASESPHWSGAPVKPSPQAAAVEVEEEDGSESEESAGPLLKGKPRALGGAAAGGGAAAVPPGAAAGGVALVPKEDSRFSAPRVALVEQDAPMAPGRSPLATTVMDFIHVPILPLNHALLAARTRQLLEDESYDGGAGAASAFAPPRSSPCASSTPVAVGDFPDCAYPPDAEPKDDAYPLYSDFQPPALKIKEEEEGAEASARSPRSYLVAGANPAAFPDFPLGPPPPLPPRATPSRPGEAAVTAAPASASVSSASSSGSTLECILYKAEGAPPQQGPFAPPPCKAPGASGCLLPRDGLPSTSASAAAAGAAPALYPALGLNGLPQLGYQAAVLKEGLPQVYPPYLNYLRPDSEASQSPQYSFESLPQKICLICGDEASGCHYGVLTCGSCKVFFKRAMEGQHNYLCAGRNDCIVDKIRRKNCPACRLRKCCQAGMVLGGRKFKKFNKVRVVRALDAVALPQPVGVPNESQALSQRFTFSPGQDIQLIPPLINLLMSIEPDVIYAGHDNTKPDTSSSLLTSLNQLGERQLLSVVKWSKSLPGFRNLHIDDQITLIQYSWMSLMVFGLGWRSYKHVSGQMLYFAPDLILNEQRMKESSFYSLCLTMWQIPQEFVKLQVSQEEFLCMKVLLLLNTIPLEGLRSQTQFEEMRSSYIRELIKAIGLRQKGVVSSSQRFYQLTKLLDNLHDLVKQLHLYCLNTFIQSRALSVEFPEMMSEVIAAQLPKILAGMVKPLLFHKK
Method: 3. PRE-luciferase Assay in CV-1 Cells
The object of this assay is to determine a compound's progestational or antiprogestational potency based on its effect on PRE-luciferase reporter activity in CV-1 cells co-transfected with human PR and PRE-luciferase plasmids. The materials methods used in the assay are as follows.
DMEM (BioWhittaker) containing 10% (v/v) fetal bovine serum (heat inactivated), 0.1 mM MEM non-essential amino acids, 100 U/ml penicillin, […] streptomycin, and 2 mM GlutaMax (GIBCO, BRL). Experimental medium: DMEM (BioWhittaker), phenol red-free, containing 10% (v/v) charcoal-stripped fetal bovine serum (heat-inactivated), 0.1 mM MEM non-essential amino acids, 100 U/ml penicillin, […] streptomycin, and 2 mM GlutaMax (GIBCO, BRL).
b. Cell Culture Transfection Treatment, and Luciferase Assay
Stock CV-1 cells are maintained in growth medium. Co-transfection is done using 1.2×10^7 cells, […] pLEM plasmid with hPR-B inserted at Sphl and BamHl sites, 10 mg pGL3 plasmid with two PREs upstream of the luciferase sequence, and 50 mg sonicated calf thymus DNA as carrier DNA in […]. Electroporation is carried out at 260 V and […] in a Biorad Gene Pulser II. After electroporation, cells are resuspended in growth medium and plated in 96-well plate at 40,000 cells/well in 200 μl. Following overnight incubation, the medium is changed to experimental medium. […] Twenty-four hr. after treatment, the medium is discarded, cells are washed three times with D-PBS (GIBCO, BRL). Fifty μl of cell lysis buffer (Promega, Madison, Wis.) is added to each well and the plates are shaken for 15 min in a Titer Plate Shaker (Lab Line Instrument, Inc.). Luciferase activity is measured using luciferase reagents from Promega.
Each treatment consists of at least 4 replicates. Log transformed data are used for analysis of variance and nonlinear dose response curve fitting for both agonist and antagonist modes. Huber weighting is used to downweight the effects of outliers. EC50 or IC50 values are calculated from the retransformed values.

[1] = test system: alkaline phosphatase activity in T47D cells; experiment: T47D cell alkaline phosphatase assay; type: cell-based; conditions: antagonist activity in the presence of 1 nM progesterone, 24 hr
Method: 4. T47D Cell Alkaline Phosphatase Assay
The purpose of this assay is to identify progestins or antiprogestins by determining a compound's effect on alkaline phosphatase activity in T47D cells.
DMEM:F12 (1:1) (GIBCO, BRL) supplemented with 5% (v/v) charcoal stripped fetal bovine serum (not heat-inactivated), 100 U/ml penicillin, 100 μg/ml streptomycin, and 2 mM GlutaMax (GIBCO, BRL). b. Alkaline Phosphatase Assay Buffer
I. 0.1 M Tris-HCl, pH 9.8, containing 0.2% Triton X-100
II. 0.1 M Tris-HCl, pH 9.8 containing 4 mM p-nitrophenyl phosphate (Sigma). c. Cell Culture and Treatment
Frozen T47D cells were thawed in a 37° C. water bath and diluted to 280,000 cells/ml in culture medium. To each well in a 96-well plate (Falcon, Becton Dickinson Labware), 180 μl of diluted cell suspension was added. Twenty μl of reference or test compounds diluted in the culture medium was then added to each well. […] The cells were incubated at 37° C. in a 5% CO2/humidified atmosphere for 24 hr. […]
d. Alkaline Phosphatase Enzyme Assay
At the end of treatment, the medium was removed from the plate and fifty μl of assay buffer I was added to each well. The plates were shaken in a titer plate shaker for 15 min. […]
For reference and test compounds, a dose response curve is generated for dose (X-axis) vs. the rate of enzyme reaction (slope) (Y-axis). […] EC50 or IC50 values are calculated from the retransformed values.

T47D cells = experiment: T47D cell proliferation assay (BrdU incorporation); type: cell-based
Method: 1. T47D Cell Proliferation Assay
The objective of this assay is the determination of progestational and antiprogestational potency by using a cell proliferation assay in T47D cells. A compound's effect on DNA synthesis in T47D cells is measured.
DMEM:F12 (1:1) (GIBCO, BRL) supplemented with 10% (v/v) fetal bovine serum (not heat-inactivated), 100 U/ml penicillin, […] streptomycin, and […] GlutaMax (GIBCO, BRL).
Minimum Essential Medium (MEM) (#51200-038GIBCO, BRL) phenol red-free supplemented with 0.5% charcoal stripped fetal bovine serum, 100 U/ml penicillin, […] streptomycin, and 2 mM GlutaMax (GIBCO, BRL). […]
At the end of BrdU labeling, the medium is removed and BrdU incorporation is measured using a cell proliferation ELISA kit (#RPN 250, Amersham Life Science) according to manufacturer's instructions. […] Then 25 μl of 1 M sulfuric acid is added to each well to stop color reaction and optical density is read in a plate reader at 450 nm within 5 min.
Square root-transformed data are used for analysis of variance and nonlinear dose response curve fitting for both agonist and antagonist modes. […] EC50 or IC50 values are calculated from the retransformed values.
Trimegestone and medroxyprogesterone acetate (MPA) are reference progestins and RU486 is the reference antiprogestin. All reference compounds are run in fill dose-response curves and the EC50 or IC50 values are calculated.

[2] = test system: rat uterine decidualization; experiment: Rat decidualization assay; type: in vivo; conditions: ovariectomized female Sprague-Dawley rats; for Estimated average EC50 for dose-response curves (decidual response): s.c.
Method: 2. Rat Decidualization Assay
b. Animals (RACUC Protocol #5002)
The animals are treated once daily for seven days.
Uteri are removed and trimmed of fat.
Body weight: Mean total animal body weight (default-kg)
Decidual response: [(D-C)/C]×100%

`CCC1Sc2cc(-c3cccc([N+](=O)[O-])c3)ccc2NC1=O` (stereo not shown) [Compound B2] showed an IC50 (human PR) of 295 nM.

With `CN1CC(=O)Nc2ccc(-c3cccc(Cl)c3)cc21` [Compound C1, 6-(3-Chloro-phenyl)-4-methyl-3,4-dihydro-1H-quinoxalin-4-one] the IC50 [1] was 600 nM.

In the case of `CN1CC(=O)Nc2ccc(-c3cc(C#N)cs3)cc21` [Compound C3, 5-(3,4-Dihydro-4-methyl-2-oxo-quinaxalin-6-yl)thiophene-3-carbonitrile], the IC50 [1] is reported as 300 nM.

`CCCCN1CC(=O)Nc2ccc(-c3cccc(Cl)c3)cc21` [Compound C6, 4-(n-Butyl)-6-(3-chloro-phenyl)-3,4-dihydro-1H quinoxalin-2-one] showed a melting point of 110 to 115 °C.

In the case of `CC#C[C@]1(O)CC[C@H]2[C@@H]3CCC4=CC(=O)CCC4=C3[C@@H](c3ccc(N(C)C)cc3)C[C@@]21C` [RU486], the IC50 (T47D cells; read-out: Estimated IC50 (half-maximal decrease in trimegestone induced BrdU incorporation), in presence of 0.03 nM trimegestone (b226 prints 0.1), individual studies) is reported as 0.016 nM and 0.018 nM.

In the case of `Cn1c(=O)[nH]c2cc(-c3cccc([N+](=O)[O-])c3)ccc21` [Compound 5], the IC50 (human PR) is reported as 750 nM.

In the case of `C#C[C@]1(O)CC[C@H]2[C@@H]3CCC4=CC(=O)CC[C@@H]4[C@H]3C(=C)C[C@@]21CC` [3-Ketodesogestrel], the “Estimated EC50 for uterine weight (decidual response)” value ([2]; s.c. once daily for seven days, individual studies) is reported as 0.10 mg/kg, s.c. and 0.06 mg/kg, s.c. and 0.11 mg/kg, s.c and the “Estimated average EC50 for dose-response curves (decidual response)” value [2] is reported as 0.10 mg/kg, s.c.

`CC(C)n1c(=O)[nH]c2ccc(-c3cccc([N+](=O)[O-])c3)cc21` [Compound 6] gave an IC50 (human PR) of 147 nM.

`O=c1[nH]c2ccc(-c3cccc([N+](=O)[O-])c3)cc2n1Cc1ccccc1` [Compound 2, 1-Benzyl-6-(3-nitro-phenyl)-1,3-dihydro-benzoimidazol-2-one] gave an IC50 (human PR) of 230 nM.

With `C#C[C@]1(O)CC[C@H]2[C@@H]3CCC4=CC(=O)CC[C@@H]4[C@H]3CC[C@@]21CC` [Levonorgestrel] the “Estimated average EC50 for dose-response curves (decidual response)” value [2] was 0.10 mg/kg, s.c.

With `O=C1CSc2cc(-c3cccc([N+](=O)[O-])c3)ccc2N1` [Compound B1, 7-(3-Nitro-phenyl)-4H-benzo[1,4]thiazin-3-one] the IC50 (human PR) was 220 nM.

`O=C1CNc2cc(-c3cccc(Cl)c3)ccc2N1` [Compound C2] gave an IC50 (human PR) of 525 nM.

In the case of `C[C@H](O)C(=O)[C@@]1(C)CC[C@H]2[C@@H]3CCC4=CC(=O)CCC4=C3CC[C@@]21C` [Trimegestone], the EC50 (T47D cells; individual studies, read-out: Estimated EC50 (half-maximal increase in BrdU incorporation)) is reported as 0.017 nM and 0.014 nM and 0.019 nM.

In the case of `CC(C)n1c(=O)[nH]c2ccc(-c3cccc(Cl)c3)cc21` [Compound 7], the IC50 (human PR) is reported as 155 nM.

In the case of `CC(C)OC(=O)N1CC(=O)Nc2ccc(-c3cccc(Cl)c3)cc21` [Example 29, Isopropyl 7-(3-chlorophenyl)-3-oxo-3,4-dihydroquinoxalin-1(2H)-carboxylate], the melting point is reported as 174 to 176 °C.
